In patent US20240294522A1 (Lead Discovery Center GmbH, priority 2021, published 2024):

Columns and labels:
GRK5 = biological target: T1, GRK5 (Homo sapiens, UniProt P34947); experiment: Lance Kinase Activity Assay, GRK5; details: biochemical Lance kinase activity assay; class symbols A-F; read-out: GRK5 LANCE Assay (IC-50)
T1 construct: purchased Thermo Scientific
Description: (§1) This protocol describes how the Lance Kinase Activity Assay was performed to determine IC50 values of compounds of general formula (I) against GRK5 and GRK2.
(§2) The principle behind this enzymatic assay is based upon the phosphorylation of the Ulight-peptide substrate. It is detected by using a specific EU-labeled anti-phospho peptide antibody. The binding of the Eu labeled anti-phospho peptide antibody to the phosphorylated ULight labeled peptide gives rise to a FRET-signal. Binding of an inhibitor to the kinase prevents phosphorylation of the Ulight-substrate, resulting in a loss of FRET. In tables 2 and 3 the relevant information for these two LANCE assays is summarized.
(§3) For every sample, 2 μl of assay buffer (50 mM HEPES pH 7,5, 10 mM MgCL2, 1 mM EGTA 0,01% Tween 20, 1% DMSO, 2 mM DTT) were transferred into a suitable assay plate (e.g. Corning #3673). Compounds were added in a concentration range from 10 μM to 0.0025 μM using an acoustic dispenser (Echo520 from Labcycte, San Jose, USA) equipped with Echo Dose Response software. After that 6 μl of kinase-substrate mix was added. Reaction was started by addition of 2 μl ATP working solution and mixed using a Bioshake 5000 microplate shaker (Q Instruments, Jena, Germany).
(§4) After 1 h incubation at room temperature the reaction was stopped with 10 μl detection mix containing the Eu-labeled phosphospecific antibody and 10 mM EDTA. After a second incubation period of 1 h at room temperature the FRET signal was measured at 340 nm excitation, 665 nm and 615 nm emission (for the ULight-substrate and Eu-AB, respectively) with an Envision microplate reader (Perkin Elmer, Waltham, MA, USA) with 50 μs delay and 300 μs integration time. IC50 values were determined from the sigmoidal dose response curves with the software Quattro Workflow (Quattro GmbH, Munich, Germany).
(§5) Inhibition is indicated as IC50 [nM] (“−”=not measured). Compounds having an activity designated as “A” provided an IC50≤50 nM; compounds having an activity designated as “B” provided an 50 nM<IC50≤100 nM; compounds having an activity designated as “C” provided an 100 nM<IC50≤500 nM; compounds having an activity designated as “D” provided an 500 nM<IC50≤1000 nM; compounds having an activity designated as “E” provided an 1000 nM<IC50≤10000 nM; and compounds having an activity designated as “F” provided an IC50>10000 nM.

GRK2 = biological target: T2, GRK2 (Homo sapiens, UniProt P25098); experiment: Lance Kinase Activity Assay, GRK2; details: biochemical Lance kinase activity assay; class symbols A-F; read-out: GRK2 LANCE Assay (IC-50)
T2 construct: purchased Thermo Scientific
T2 sequence (P25098 1-689): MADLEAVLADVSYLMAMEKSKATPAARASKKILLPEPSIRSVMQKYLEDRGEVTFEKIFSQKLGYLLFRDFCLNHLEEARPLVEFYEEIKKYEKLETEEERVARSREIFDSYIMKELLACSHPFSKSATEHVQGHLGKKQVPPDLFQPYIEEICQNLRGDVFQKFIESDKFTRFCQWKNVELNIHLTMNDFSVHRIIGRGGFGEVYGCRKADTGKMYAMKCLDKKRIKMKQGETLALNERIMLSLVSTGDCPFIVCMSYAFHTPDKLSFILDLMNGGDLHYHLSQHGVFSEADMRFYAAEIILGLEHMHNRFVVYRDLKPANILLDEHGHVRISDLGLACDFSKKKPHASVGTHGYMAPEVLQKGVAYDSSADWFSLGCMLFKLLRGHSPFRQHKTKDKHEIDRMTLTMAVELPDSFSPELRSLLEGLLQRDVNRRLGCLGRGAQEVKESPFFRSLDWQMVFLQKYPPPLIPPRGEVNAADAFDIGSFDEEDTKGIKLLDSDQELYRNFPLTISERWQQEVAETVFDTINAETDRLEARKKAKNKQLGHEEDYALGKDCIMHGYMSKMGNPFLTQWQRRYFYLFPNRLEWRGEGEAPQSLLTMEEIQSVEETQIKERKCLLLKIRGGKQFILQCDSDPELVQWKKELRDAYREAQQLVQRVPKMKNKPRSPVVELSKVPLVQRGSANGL
Description: as §1, §2, §3, §4, §5

T1 sequence (P34947 whole entry): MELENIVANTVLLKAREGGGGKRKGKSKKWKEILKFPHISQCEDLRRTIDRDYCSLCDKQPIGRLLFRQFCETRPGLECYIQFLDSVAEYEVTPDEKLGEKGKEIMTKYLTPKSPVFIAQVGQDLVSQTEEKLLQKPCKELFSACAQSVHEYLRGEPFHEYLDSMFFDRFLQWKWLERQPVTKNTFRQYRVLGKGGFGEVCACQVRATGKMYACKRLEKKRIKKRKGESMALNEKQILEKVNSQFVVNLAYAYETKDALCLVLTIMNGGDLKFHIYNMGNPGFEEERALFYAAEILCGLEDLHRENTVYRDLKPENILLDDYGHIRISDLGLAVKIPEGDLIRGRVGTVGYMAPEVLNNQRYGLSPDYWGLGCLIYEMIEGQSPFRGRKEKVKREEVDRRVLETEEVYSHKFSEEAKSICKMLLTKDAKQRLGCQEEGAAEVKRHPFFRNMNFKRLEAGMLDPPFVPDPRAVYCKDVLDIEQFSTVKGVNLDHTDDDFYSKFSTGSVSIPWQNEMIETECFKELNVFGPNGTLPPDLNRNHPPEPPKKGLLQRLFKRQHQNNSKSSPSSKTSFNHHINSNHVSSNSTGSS

SMILES	IC50 (GRK5)	IC50 (GRK2)
N#C/C(=C\c1c[nH]c2ncccc12)C(=O)NCc1cccc(CS(N)(=O)=O)c1 [Example 27, (E)-2-cyano-3-(1H-pyrrolo[2,3-b]pyridin-3-yl)-N-(3-(sulfamoylmethyl)benzyl)-acrylamide]	1 to 10 µM	1 to 10 µM
C[C@@H](NC(=O)/C(C#N)=C/c1c[nH]c2ncccc12)c1cccc(Cl)c1 [Example 13, (R,E)-N-(1-(3-chlorophenyl)ethyl)-2-cyano-3-(1H-pyrrolo[2,3-b]pyridin-3-yl)acrylamide]	0.05 to 0.1 µM	0.1 to 0.5 µM
CCN1CCN(S(=O)(=O)c2ccc(-c3cnc4[nH]cc(/C=C(\C#N)C(=O)N[C@H](C)c5ccc(OC)c(OC)c5)c4c3)cc2)CC1 [Example 121, (R,E)-2-cyano-N-(1-(3,4-dimethoxyphenyl)ethyl)-3-(5-(4-((4-ethylpiperazin-1-yl)sulfonyl)phenyl)-1H-pyrrolo[2,3-b]pyridin-3-yl)acrylamide]	0.1 to 0.5 µM	> 10 µM
COc1ccc([C@@H](C)NC(=O)/C(C#N)=C/c2c[nH]c3ncc(-c4cnn(C5COC5)c4)cc23)cc1OC [Example 155]	≤ 0.05 µM	1 to 10 µM
COc1ccc([C@@H](C)NC(=O)/C(C#N)=C/c2c[nH]c3ncc(N4CCN(C)CC4)cc23)cc1OC [Example 85]	≤ 0.05 µM	> 10 µM
COc1ccc([C@@H](C)NC(=O)/C(C#N)=C/c2c[nH]c3ncc(-c4cnn5ccccc45)cc23)cc1OC [Example 167]	≤ 0.05 µM	1 to 10 µM
COc1ccc([C@@H](C)NC(=O)/C(C#N)=C/c2c[nH]c3nccc(-c4cccc(N5CCN(C)CC5)c4)c23)cc1OC [Example 172, (R,E)-2-cyano-N-(1-(3,4-dimethoxyphenyl)ethyl)-3-(4-(3-(4-methylpiperazin-1-yl)phenyl)-1H-pyrrolo[2,3-b]pyridin-3-yl)acrylamide]	≤ 0.05 µM	1 to 10 µM
N#C/C(=C\c1c[nH]c2ncc(C(F)(F)F)cc12)C(=O)NCc1ccccc1 [Example 71, (E)-N-benzyl-2-cyano-3-(5-(trifluoromethyl)-1H-pyrrolo[2,3-b]pyridin-3-yl)acrylamide]	1 to 10 µM	> 10 µM
C[C@@H](NC(=O)/C(C#N)=C/c1c[nH]c2ncc(-c3cccc(N4CCN(C)CC4)c3)cc12)c1ccc(F)cc1 [Example 181, (R,E)-2-cyano-N-(1-(4-fluorophenyl)ethyl)-3-(5-(3-(4-methylpiperazin-1-yl)phenyl)-1H-pyrrolo[2,3-b]pyridin-3-yl)acrylamide]	≤ 0.05 µM	0.1 to 0.5 µM
COc1ccc([C@@H](C)NC(=O)/C=C/c2c[nH]c3ncc(-c4cc(Cl)cc(S(C)(=O)=O)c4)cc23)cc1OC [Example 247, (R,E)-3-(5-(3-chloro-5-(methylsulfonyl)phenyl)-1H-pyrrolo[2,3-b]pyridin-3-yl)-N-(1-(3,4-dimethoxyphenyl)ethyl)acrylamide]	≤ 0.05 µM	> 10 µM
COc1ccc([C@@H](C)NC(=O)/C=C/c2c[nH]c3ncc(-c4cccc(S(=O)(=O)N(C)C)c4)cc23)cc1OC [Example 198, (R,E)-N-(1-(3,4-dimethoxyphenyl)ethyl)-3-(5-(3-(N,N-dimethylsulfamoyl)phenyl)-1H-pyrrolo[2,3-b]pyridin-3-yl)acrylamide]	≤ 0.05 µM	1 to 10 µM
COc1ccc([C@@H](C)NC(=O)/C(C#N)=C\c2c[nH]c3ncc(-c4ccc(C#N)cc4)cc23)cc1OC [Example 140, (R,Z)-2-cyano-3-(5-(4-cyanophenyl)-1H-pyrrolo[2,3-b]pyridin-3-yl)-N-(1-(3,4-dimethoxyphenyl)ethyl)acrylamide]	≤ 0.05 µM	> 10 µM
COc1ccc([C@@H](C)NC(=O)/C=C/c2c[nH]c3ncc(-c4ccnc(S(C)(=O)=O)c4)cc23)cc1OC [Example 250, (R,E)-N-(1-(3,4-dimethoxyphenyl)ethyl)-3-(5-(2-(methylsulfonyl)pyridin-4-yl)-1H-pyrrolo[2,3-b]pyridin-3-yl)acrylamide]	≤ 0.05 µM	1 to 10 µM
COc1ccc([C@@H](C)NC(=O)/C=C/c2c[nH]c3ncc(-c4cc(S(C)(=O)=O)ccc4C)cc23)cc1OC [Example 248, (R,E)-N-(1-(3,4-dimethoxyphenyl)ethyl)-3-(5-(2-methyl-5-(methylsulfonyl)phenyl)-1H-pyrrolo[2,3-b]pyridin-3-yl)acrylamide]	≤ 0.05 µM	> 10 µM
COc1ccc([C@@H](C)NC(=O)/C(C#N)=C/c2c[nH]c3ncc(OC4CCOCC4)cc23)cc1OC [Example 111, (R,E)-2-cyano-N-(1-(3,4-dimethoxyphenyl)ethyl)-3-(5-((tetrahydro-2H-pyran-4-yl)oxy)-1H-pyrrolo[2,3-b]pyridin-3-yl)acrylamide]	≤ 0.05 µM	1 to 10 µM
COc1ccc([C@@H](C)NC(=O)/C(C#N)=C/c2c[nH]c3ncc(-c4cccc(CN(C)C)c4)cc23)cc1OC [Example 148]	≤ 0.05 µM	1 to 10 µM
COc1ccc([C@@H](C)NC(=O)/C=C/c2c[nH]c3ncc(OC4CCS(=O)(=O)CC4)cc23)cc1OC [Example 55, (R,E)-N-(1-(3,4-dimethoxyphenyl)ethyl)-3-(5-((1,1-dioxidotetrahydro-2H-thiopyran-4-yl)oxy)-1H-pyrrolo[2,3-b]pyridin-3-yl)acrylamide]	≤ 0.05 µM	> 10 µM

Further lines, results first:

IC50 (GRK5)	IC50 (GRK2)	SMILES
≤ 0.05 µM	0.5 to 1 µM	COc1ccc([C@@H](C)NC(=O)/C=C/c2c[nH]c3ncc(-c4cccc(S(C)(=N)=O)c4)cc23)cc1OC (stereo partly drawn) [Example 251, (E)-N-((R)-1-(3,4-dimethoxyphenyl)ethyl)-3-(5-(3-(S-methylsulfonimidoyl)phenyl)-1H-pyrrolo[2,3-b]pyridin-3-yl)acrylamide]
≤ 0.05 µM	0.1 to 0.5 µM	COc1ccc([C@@H](C)NC(=O)/C=C/c2c[nH]c3ncc(-c4ccc(N5CCN(C(C)=O)CC5)cc4)cc23)cc1OC [Example 182]
≤ 0.05 µM	1 to 10 µM	COc1ccc([C@@H](C)NC(=O)/C(C#N)=C/c2c[nH]c3ncc(O[C@H]4CCOC4)cc23)cc1OC [Example 108, (E)-2-cyano-N-((R)-1-(3,4-dimethoxyphenyl)ethyl)-3-(5-(((S)-tetrahydrofuran-3-yl)oxy)-1H-pyrrolo[2,3-b]pyridin-3-yl)acrylamide]
≤ 0.05 µM	> 10 µM	COc1ccc([C@@H](C)NC(=O)/C(C#N)=C/c2c[nH]c3ncc(-c4cccnc4)cc23)cc1OC [Example 130]
≤ 0.05 µM	1 to 10 µM	COc1ccc([C@@H](C)NC(=O)/C(C#N)=C/c2c[nH]c3ncc(-c4cnn(CCN5CCOCC5)c4)cc23)cc1OC [Example 160]
≤ 0.05 µM	1 to 10 µM	COc1ccc([C@@H](C)NC(=O)/C=C/c2c[nH]c3ncc(-c4cccc(S(=O)(=O)C5CC5)c4)cc23)cc1OC [Example 216, (R,E)-3-(5-(3-(cyclopropylsulfonyl)phenyl)-1H-pyrrolo[2,3-b]pyridin-3-yl)-N-(1-(3,4-dimethoxyphenyl)ethyl)acrylamide]
≤ 0.05 µM	0.05 to 0.1 µM	Cc1noc2ccc([C@@H](C)NC(=O)/C=C/c3c[nH]c4ncc(-c5cnn(C)c5)cc34)cc12 [Example 260, (R,E)-3-(5-(1-methyl-1H-pyrazol-4-yl)-1H-pyrrolo[2,3-b]pyridin-3-yl)-N-(1-(3-methylbenzo[d]isoxazol-5-yl)ethyl)acrylamide]
